{"source": "paper PMC9230797", "about": "“Integration of a Physiologically Based Pharmacokinetic and Pharmacodynamic Model for Tegoprazan and Its Metabolite: Application for Predicting Food Effect and Intragastric pH Alterations” (Pharmaceutics, 2022)", "key": {"recombinant CYP2D6": {"target": "T1, recombinant CYP2D6 (Homo sapiens, UniProt P10635)", "T1 construct": "purchased Corning Life Sciences (Woburn, MA, USA)", "T1 sequence (P10635 whole entry)": "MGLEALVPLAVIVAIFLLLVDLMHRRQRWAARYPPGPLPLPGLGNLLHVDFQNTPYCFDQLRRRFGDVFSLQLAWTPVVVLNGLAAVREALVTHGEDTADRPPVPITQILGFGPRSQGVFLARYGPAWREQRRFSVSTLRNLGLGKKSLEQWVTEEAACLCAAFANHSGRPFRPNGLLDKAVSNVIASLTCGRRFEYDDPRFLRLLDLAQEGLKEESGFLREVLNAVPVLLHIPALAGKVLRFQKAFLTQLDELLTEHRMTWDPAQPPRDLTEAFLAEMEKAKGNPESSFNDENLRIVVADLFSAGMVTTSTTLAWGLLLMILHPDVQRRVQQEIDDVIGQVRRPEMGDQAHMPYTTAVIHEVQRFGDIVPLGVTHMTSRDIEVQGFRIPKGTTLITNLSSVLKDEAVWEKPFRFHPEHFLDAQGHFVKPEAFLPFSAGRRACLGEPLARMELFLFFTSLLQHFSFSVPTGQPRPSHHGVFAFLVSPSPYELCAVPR", "assay": "Intrinsic clearance using recombinant CYPs: CYP2D6", "type": "in vitro ADME", "conditions": "1 μM", "experimental": "The elimination profiles of tegoprazan and M1 were assessed using rCYPs. All the assay procedures were performed according to the manufacturer’s instructions. Master mix (1.399 mL), containing the NADPH-generating system, 3.3 mM of glucose 6-phosphate, PBS buffer, deionized water, and each rCYP (25 pmol/μL of CYP2C8, 2C19, and 2E1 and 50 pmol/μL of CYP3A4, 2C9, and 2D6), was added to a microtube and pre-incubated at 37 °C for 5 min. Next, 1 μM tegoprazan and M1 were added and incubated at 37 °C for 0, 5, 10, 20, 30, 45, and 60 min. A total of 100 μL of the sample, incubated for predefined duration, was transferred to a fresh e-tube. Next, 200 μL of acetonitrile containing tegoprazan-d6 (0.5 μM) was added, vortexed for 5 min, and centrifuged at 16,200× g and 4 °C for 10 min. The concentrations of the remaining tegoprazan and M1 were determined by LC–MS/MS. All experiments were performed in duplicate. CLint,rCYP levels were assessed using the results of the disappearance test. The terminal slope of the linear regression was used to determine the CLint for tegoprazan. The CLint resulting from rCYPs was calculated using Equation (3):(3) CLint,rCYP(μL/min/pmol CYP)=0.693/t1/2×1400/concentration of CYP […]"}, "[1]": {"assay": "Clinical PK of single and repeated oral doses of tegoprazan in healthy adult males (literature)", "type": "in vivo, human", "conditions": "100 mg once daily; from values of ref 15"}, "[2]": {"assay": "PBPK model input parameters predicted in SimCYP or obtained by parameter estimation", "conditions": "human; initial model value; Vd of the clinical study applied; read-out: Vss", "description": "The tegoprazan and M1 PBPK models were developed using SimCYP® simulator, version 20 (Certara, Princeton, NJ, USA). Compound libraries were incorporated into an in vitro dataset, including the microsomal clearance of tegoprazan and M1. Observed PK parameters were obtained from the aforementioned clinical studies (Table 1 and Table 2).\nThe absorption of tegoprazan was applied to the advanced dissolution, absorption, and metabolism (ADAM) model, and the diffusion layer model (DLM) built into SimCYP® was applied to the considered formulation and pH-dependent solubility of tegoprazan. The permeability of tegoprazan was determined by a Caco-2 permeability assay and optimized by parameter estimation. Caco-2 permeability was optimized such that the predicted concentration–time profiles were fitted to clinical study data. The metabolite was generated by the metabolism of the parent drug; therefore, absorption was not considered.\nThe tissue distribution in the PBPK model was predicted by the distribution model (e.g., Rodger and Rowland method, Poulin and Theil method) and the tissue:plasma partition coefficient (Kp) scalar for specific organ or global values. Predicted systemic distribution was expressed as the volume of distribution in a steady state (Vss). […]"}, "[3]": {"design": "method as in PMID 32055586", "conditions": "Observed (n = 12); single 100 mg tegoprazan; mean (5th–95th percentile); cited from earlier work"}, "[4]": {"design": "method as in PMID 31437865", "conditions": "cited from earlier work"}, "[5]": {"conditions": "cited from earlier work"}, "porcine H^+/K^+-ATPase": {"target": "porcine H^+/K^+-ATPase", "conditions": "experimental; read-out: half maximal inhibitory concentration (IC50); cited from earlier work"}, "CYP3A4": {"test_system": "CYP3A4", "design": "method as in ref 18 = [18]; PMID 34575565; doi:10.3390/pharmaceutics13091489; 18. Yoon D.Y. Lee S. Jang I.-J. Kim M. Lee H. Kim S. Kim B. Song G.S. Rhee S.-J. Prediction of Drug–Drug Interaction Potential of Tegoprazan Using Physiologically Based Pharmacokinetic Modeling and Si", "conditions": "cited from earlier work"}, "[6]": {"design": "method as in earlier work", "conditions": "cited from earlier work"}, "[7]": {"conditions": "At 30 min after a high-fat meal, Observed (n = 12), single 50 mg, ref 34 (footnote; text: ref 16)"}}, "note": "pIC50: −log10 of the molar value. Where “and” joins values, the source holds several entries; their conditions need not be identical. Identical values can stand only once. Like-named read-outs stand apart in the source and are kept apart here.", "data": [{"smiles": "Cc1nc2cc(C(=O)N(C)C)cc(O[C@H]3CCOc4cc(F)cc(F)c43)c2[nH]1", "note": "[tegoprazan]", "values": [{"measurement": "CLint, CYP2D6", "setting": "recombinant CYP2D6; experimental data", "result": "0.02 µL/min/pmol and 0.020 µL/min/pmol"}, {"measurement": "Slope (disappearance)", "setting": "recombinant CYP2D6; rCYP2D6", "result": "< 0.001"}, {"measurement": "decrease of observed Cmax at Day 7 compared with Day 1", "setting": "[1]", "result": "approximately 40.2%"}, {"measurement": "Vd", "setting": "[2]", "result": 1.55, "unit": "L/kg"}, {"measurement": "AUC0–24 h", "setting": "[3]", "result": "5611 (3783–7489) ng × h/mL"}, {"measurement": "CL", "setting": "[3]", "result": "17.8 (13.1–24.4) L/h"}, {"measurement": "Cmax", "setting": "[3]", "result": "1425 (908–2184) ng/mL"}, {"measurement": "observed Cmax, Day 7", "setting": "[4]; 100 mg once daily for 7 days", "result": "845.2 ± 40.7", "unit": "ng/mL"}, {"measurement": "observed Cmax, Day 1", "setting": "[4]; 100 mg once daily", "result": "1413.3 ± 24.7", "unit": "ng/mL"}, {"measurement": "Tmax", "setting": "[5]; At 30 min after a high-fat meal, Observed (n = 12), single 50 mg, median (min–max), ref 34 (footnote; text: ref 16)", "result": "3.0 (0.5–8.0) h"}, {"measurement": "AUC0–24 h", "setting": "[5]; [7]", "result": "3017 ± 1194", "unit": "ng·h/mL"}, {"measurement": "Cmax", "setting": "[5]; [7]", "result": "492.0 ± 293.9", "unit": "ng/mL"}, {"measurement": "AUC0–24 h", "setting": "[5]; Fast, Observed (n = 12), single 50 mg, mean ± SD, ref 34 (footnote; text: ref 16)", "result": "2837 ± 1055", "unit": "ng·h/mL"}, {"measurement": "Cmax", "setting": "[5]; Fast, Observed (n = 12), single 50 mg, ref 34 (footnote; text: ref 16)", "result": "803.0 ± 156.2", "unit": "ng/mL"}, {"measurement": "Cmax", "setting": "[5]; administered at 30 min after high-fat meal, observed", "result": 492, "unit": "ng/mL"}, {"measurement": "median Tmax", "setting": "[5]; at 30 min before a high-fat meal, observed", "result": 28.8, "unit": "min"}, {"measurement": "Cmax", "setting": "[5]; fasting state, observed", "result": 803, "unit": "ng/mL"}, {"measurement": "Cmax at 30 min after a high-fat meal compared with fasting state (decreased to)", "setting": "[5]; observed", "result": 38.7, "unit": "%"}, {"measurement": "pIC50", "setting": "porcine H^+/K^+-ATPase", "result": 6.28}, {"measurement": "predicted systemic exposure change", "setting": "CYP3A4; co-administered with the maximum recommended dose of clarithromycin or ketoconazole vs without CYP3A4 modulator", "result": "increased by approximately three-fold"}, {"measurement": "predicted decrease of systemic exposure", "setting": "CYP3A4; with the CYP3A4 inducer rifampicin", "result": "up to 30%"}, {"measurement": "CLR (renal clearance)", "setting": "[6]", "result": 1.1, "unit": "L/h"}, {"measurement": "fu (unbound fraction)", "setting": "[6]; plasma", "result": 0.087}]}]}
